In US5731328A, “Methods of inhibiting plasminogen activator inhibitor 1” (Eli Lilly and Company, priority 1996, dated 1998):

Key:
[1] = test system: Human umbilical vein endothelial cells (HUVEC); test: Responsiveness of HUVEC lots to 17-beta estradiol; type: cell-based; conditions: several lots of cells from Clonetics, initial experiments
[2] = test system: secretion of PAI-1 from human endothelial cells (HUVEC); test: Endothelial cell PAI-1 assay: IL-1 induced PAI-1 secretion, Imubind Plasma PAI-1 ELISA; type: cell-based
Procedure: 96 well tissue culture plates were prepared with 5×10^4 human endothelial cells (HUVEC) per well in Clonetics' Endothelial Cell Growth Medium (EGM) supplemented with 2% FBS. Following incubation overnight at 37° C., the medium was replaced with serum-free medium (DMEM/F-12 medium, 20 mM-HEPES, pH 7.5, 50 μg/ml gentamicin, 1 μg/ml human transferrin and 1 μg/ml bovine insulin) with or without compound 1, (where R1 and R2 are hydroxy, and […] is pyrrolidino), and with or without 1 nM IL-1-beta. Following incubation overnight at 37° C., samples of culture medium were assayed for secreted PAI-1 using the Imubind Plasma PAI-1 ELISA (American Diagnostic Inc. #822/1S).
Human umbilical vein endothelial cells (HUVEC) were treated with compound 1 concurrent to the induction of PAI-1 with IL-1. […] Further the positive effect of compound 1 on reducing PAI-1 may provide for acute uses in conditions where elevated levels are associated with pathology.

[3] = test system: estrogen receptor; conditions: cited from earlier work
[4] = test system: PAI-1; conditions: post-menopausal women, estrogen therapy; cited from earlier work

C[C@]12CC[C@@H]3c4ccc(O)cc4CC[C@H]3[C@@H]1CC[C@@H]2O [17-beta estradiol]
responsiveness of HUVEC lots (in words) [1]: not all lots were responsive

O=C(c1ccc(OCCN2CCCC2)cc1)c1c(-c2ccc(O)cc2)sc2cc(O)ccc12 [Compound 1]
induction of PAI-1 by IL-1 (in words) ([2]; 0.5 nM, estrogen-responsive line): significantly reduced the induction of PAI-1 by IL-1 | inhibition at 0.005 µM ([2]; Homo sapiens, 5 × 10^-9 M, IL-1 induced secretion, different lot of estrogen-responsive HUVEC, read-out: PAI-1 Level (% inhibition)): 82 ± 17% | inhibition at 0.0005 µM ([2]; Homo sapiens, 5 × 10^-10 M, IL-1 induced secretion, different lot of estrogen-responsive HUVEC, read-out: PAI-1 Level (% inhibition)): 65 ± 8% | inhibition at 50 pM ([2]; Homo sapiens, 5 × 10^-11 M, IL-1 induced secretion, different lot of estrogen-responsive HUVEC, read-out: PAI-1 Level (% inhibition)): 48 ± 11% | inhibition at 5 pM ([2]; Homo sapiens, 5 × 10^-12 M, IL-1 induced secretion, different lot of estrogen-responsive HUVEC, read-out: PAI-1 Level (% inhibition)): 22 ± 4% | inhibition at 500 fM ([2]; Homo sapiens, 5 × 10^-13 M, IL-1 induced secretion, different lot of estrogen-responsive HUVEC, read-out: PAI-1 Level (% inhibition)): -1 ± 7% | inhibition at 50 fM ([2]; Homo sapiens, 5 × 10^-14 M, IL-1 induced secretion, different lot of estrogen-responsive HUVEC, read-out: PAI-1 Level (% inhibition)): 0% | PAI-1 Level (mean +/- SE, n = 4) ([2]; IL-1 & .5 nM compound 1, HUVEC, overnight at 37° C., serum-free medium, No IL-1 control 328 +/- 46, IL-1 alone 735 +/- 11): 521 ± 52 ng/mL | inhibition of IL-1 induced PAI-1 secretion, concentration dependence (in words) ([2]; different lot of estrogen-responsive cells): inhibited IL-1 induced secretion in a concentration-dependent manner | inhibition of the induction of PAI-1 from activated endothelial cells (in words) ([2]; summary of Tables 1 and 2): very potent inhibitor

O=C(c1ccc(OCCN2CCCCC2)cc1)c1c(-c2ccc(O)cc2)sc2cc(O)ccc12 [Raloxifene]
binding to the estrogen receptor (in words) [3]: shown to bind to the estrogen receptor

estrogen
reduction of PAI-1 levels (in words) [4]: reduced to pre-menopausal levels
